Results as given in patent publication US9481713B2, “Self-assembling peptides incorporating modifications and methods of use thereof” (Massachusetts Institute of Technology, priority 2010, dated 2016).

How the values were obtained:
[1] = tested on: human periodontal ligament fibroblasts (HPDLF); test: Periodontal ligament fibroblast attachment and proliferation on peptide scaffolds; format: cell-based; settings: periodontal ligament fibroblasts cultured for three weeks
Procedure: (§1) 1% RADA16 solution was obtained as PuraMatrix (3DM Inc./BD Bioscience). VEVK9, VEVK12 and the functionalized peptides were obtained from CPC Scientific (San Jose, Calif.) and dissolved in water at final concentration of 1% […]. The functionalized peptide solutions were then mixed with 1% RADA16, VEVK9 or VEVK12 solution at a ratio of 1:1. Each peptide solution was then loaded in the cell culture plate insert (BD Bioscience, Bedford, Mass.). The medium described below was added to induce hydrogel formation.
(§2) Primary isolated human periodontal ligament fibroblasts were commercially obtained from Lonza Inc. (HPDLF, Walkersville, Md.) and routinely grown in the culture medium (SCGM, Walkersville, Md.) on regular cell culture flask. The cells were plated at 2×10^4 cells on the gel in the inserts. The culture medium was changed every three days. Additional growth factors were not used.
(§3) Following the experiments, the cells on the gel were fixed with 4% paraformaldehyde for 15 min and permeabilized with 0.1% Triton X-100 for 5 min at room temperature. Fluorescent Rhodamin phalloidin and SYTOX® Green (Molecular Probes, Eugene, Oreg.) were used for labeling F-actin and nuclei, respectively. Images were taken using a fluorescence microscope (Axiovert 25, ZEISS) or laser confocal scanning microscope (Olympus FV300).

[2] = tested on: human periodontal ligament fibroblasts (HPDLF); test: Periodontal ligament fibroblast migration into peptide scaffolds (confocal microscopy); format: cell-based; settings: for fibroblast adhesion, proliferation and 3-D migration into scaffold: reconstructed confocal images
Procedure: as §1, §2, §3
The functionalized peptide was obtained from CPC Scientific (San Jose, Calif.) and dissolved in water at final concentration of 1% […] as well. The functionalized peptide solutions were then mix with 1% VEVK9 or VEVK12 solution. The each peptide solution was loaded in the cell culture plate insert (BD Bioscience, Bedford, Mass.). The medium described below was added to induce hydrogel formation.

[3] = target: T1, MMP-2 (Homo sapiens, UniProt P08253); settings: reference 19b; cited from earlier work
T1 sequence (P08253 110-660): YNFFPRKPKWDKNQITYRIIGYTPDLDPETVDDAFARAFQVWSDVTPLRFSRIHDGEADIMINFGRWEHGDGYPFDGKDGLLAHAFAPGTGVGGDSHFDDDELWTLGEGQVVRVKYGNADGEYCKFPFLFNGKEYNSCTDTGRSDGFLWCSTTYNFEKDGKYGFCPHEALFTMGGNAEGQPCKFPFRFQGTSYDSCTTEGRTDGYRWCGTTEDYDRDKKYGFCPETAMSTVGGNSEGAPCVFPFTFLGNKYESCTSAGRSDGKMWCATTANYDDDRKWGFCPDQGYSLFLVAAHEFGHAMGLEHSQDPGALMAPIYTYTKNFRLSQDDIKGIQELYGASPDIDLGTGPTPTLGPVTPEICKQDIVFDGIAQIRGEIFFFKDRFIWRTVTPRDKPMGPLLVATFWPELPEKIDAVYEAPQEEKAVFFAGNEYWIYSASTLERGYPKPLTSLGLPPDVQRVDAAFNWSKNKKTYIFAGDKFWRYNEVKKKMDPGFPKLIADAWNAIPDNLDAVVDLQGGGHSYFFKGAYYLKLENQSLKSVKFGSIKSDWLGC

[4] = tested on: human periodontal ligament fibroblasts (HPDLF); test: Fluorescent immunostaining of type I and type III collagen production on peptide scaffolds; format: cell-based; settings: six weeks cell culture, compared to RADA16 (FIG. 5)
Procedure: as §2
After the cell fixation, the primary antibody for type I collagen (5% Anti-collagen type I, Millpore, Mass.) was added and incubated at 37° for 40 min, then washing six times with PBS with 1% BSA. The second antibody (0.5% Alexa fluor 488 goat anti-rabbit IgG, Invitrogen) was added and incubated at 37° for another 40 min, then washing as well. After that, the primary antibody for type III collagen (0.5% Anti-collagen type III, Millpore, Mass.) was added and incubated at 37° for 40 min, then washing. Finally, the second antibody (0.5% Alexa fluor 594 goat ant-mouse IgG, Invitrogen) was added and incubated at 37° for another 40 min. Nonspecific staining as a control was performed by omitting primary antibodies.

[5] = tested on: Human gingival fibroblasts (HGF-1); test: Gingival fibroblast attachment and migration on peptide scaffolds (selective cell reproduction); format: cell-based; settings: Example 2 comparison study, HGF-1 (FIG. 6)
Procedure: We tested the selective cell reproduction property of the functional scaffolds, using two periodontal cells, periodontal ligament fibroblasts and gingival fibroblasts.
Human gingival fibroblasts were commercially obtained from ATCC (HGF-1) and routinely grown in the culture medium (DMEM+10% FBS) on regular cell culture flask. The cells were plated at 2×10^4 cells on the gel in the inserts. The culture medium was changed every three days.

[6] = Tapping mode AFM analysis of nanofiber formation; format: physicochemical; settings: aqueous solutions
Source text: VEVK9 and VEVK12 are simple repeating units of amino acids VEVK (Valine-Glutamate-Valine-Lysine) which self-assemble into a nanofiber structure. The self-assembling peptide VEVK9 was functionalized either with RGD, laminin cell adhesion motifs or an MMP cleavable motif in order to mimic extracellular matrix to enhance cell maintenance and function in cell cultures. The functionalized peptides vPRG, vYIG and vIKV were synthesized with the VEVK9 sequence plus an additional motif added to the C-terminus using solid phase synthesis. One motif contains two repetitions of the RGD sequence (PRGDSGYRGDS (SEQ ID NO: 15)), and the others are cell adhesion motifs of laminin (YIGSR (SEQ ID NO: 5), IKVAV (SEQ ID NO: 6)). Glycine residues were used between the self-assembling motif VEVKVEVKV (SEQ ID NO: 2) and the functional motif as a spaced linker to keep the flexibility of the functional peptides. The MMP-2 cleavable motif (PVGLIG (SEQ ID NO: 11)) was inserted between two VEVK units. In comparison to RADA16-I and its functionalized peptides, these peptides are short sequences, maximum 20 amino acids (in vPRG), and seem to be cost-effective. The peptides were solubilized in water at a concentration of 10 mg/ml (1%, w/v). The peptides readily undergo self-assembly to form soft hydrogels. Mixing with self-assembling peptide VEVK9 or VEVK12 facilitated self-assembly and gelation. […]

Row | Substance | cell attachment and morphology [1] | fibroblast adhesion, proliferation and 3-D migration into scaffold [2] | further results
1 | Ac-VEVKVEVKV-CONH2 (Ac-VEVKVEVKV-NH2) [VEVK9, 1% peptide E solution] | sparse and have a rounded morphology | Only a few fibroblasts adhered | 
2 | Ac-VEVKVEVKVGYIGSRCONH2 [vYIG] | good attachment and extension | migrate into them in the same manner | 
3 | (RADA)3PVGLIG (RADA)3 (RADARADARADAPVGLIGRADARA) |  |  | degradability by MMP-2 [3]: degradable by MMP-2
4 | Ac(RADA)4CONH2 (Ac-RADARADARADARADA-NH2) [RADA16, 1% peptide A solution; self assembling motif, obtained as PuraMatrix] |  |  | type I and type III collagens production [4]: not to produce collagens; gingival fibroblast attachment and migration [5]: did not show migration in both fibroblasts; periodontal ligament fibroblast attachment and migration ([2]; Example 2 comparison study (FIG. 6)): did not show migration in both fibroblasts
5 | Ac-VEVKVEVKVGIKVAVCONH2 [vIKV] | good attachment and extension | migrate into them in the same manner | 
6 | Ac-VEVKGPVGLIGVEVKCONH2 [vPVG] |  | significant increases in fibroblast proliferation and migration | 
7 | Ac-VEVKVEVKVEVK-CONH2 (Ac-VEVKVEVKVEVK-NH2) [VEVK12, 1% peptide F solution] | sparse and have a rounded morphology |  | formation of nanofibers [6]: formed nanofibers
8 | Ac-VEVKVEVKVGPRGDSGYRGDSGCONH2 [vPRG] | good attachment and extension | significant increases in fibroblast proliferation and migration | 
